The text below walks through data of ChEMBL document CHEMBL1201862, “PubChem BioAssay data set” (2004).

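Tested at 5 concentrations; 48 h exposure; 96-well plates; endpoints linearly interpolated, else capped at highest concentration. GI50 marks 50% less growth.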 The source made the active and inactive calls. No stated cut-off is given here; in the data, active = GI50 up to about 1.1 µM and inactive = higher. A value given as a limit tells only on which side of the number the result lay.

Common to all, as to assay: inhibition of tumour cell growth, NCI panel, 48 h
Assay [1] deals with A549.
The test system of assay [2] is EKVX.
Assay [3] concerns HCT-15.
The subject of assay [4] is Hs-578T.
Assay [5] deals with Malme-3M.
For assay [6], the system named is NCI-H23.
The subject of assay [7] is NCI-H522.
In assay [8] the test system is OVCAR-3.
Assay [9] has as its system PC-3.
Assay [10] deals with SN12C.
Assay [11] relates to SNB-19.
The test system of assay [12] is SW-620.
Assay [13] relates to TK-10.
In assay [14] the test system is U-251.
Assay [15] deals with UACC-257.
Assay [16] concerns UACC-62.
For assay [17], the system named is MDA-N.
In assay [18] the test system is OVCAR-4.
In assay [19] the test system is SF-295.

Regarding `O=C1c2cc(Br)ccc2-c2ccc3c4ccc5c6c(ccc(c7ccc1c2c73)c64)C(=O)c1cc(Br)ccc1-5`, the GI50 is > 100 µM (inactive) in [1]; > 100 µM (inactive) in assay [2]; above 100 µM in [3]; > 100 µM (inactive) in assay [4]; > 100 µM (inactive) in [5]; > 100 µM (inactive) in assay [6]. The GI50 in assay [7], in [8], in [9], in assay [10], in [11] and in assay [12] was > 100 µM (inactive) in each case. Also, the GI50 in [13], in assay [14], in assay [15] and in assay [16] was > 100 µM (inactive) throughout.

On to `CC(=O)O/C=C1/C[C@H]2[C@@H]3CCC4CC(C(C)=O)CC[C@]4(C)[C@H]3CC[C@]2(C)C1=O` (stereo partly specified), for which the GI50 in assay [2] was > 100 µM (inactive); in [3], 14.8 µM; in assay [17] it was 88.1 µM (inactive); in assay [5], > 100 µM (inactive); in assay [6], 81.7 µM (inactive); in assay [7] it was > 100 µM (inactive). The GI50 in [8] was 33.2 µM (inactive); in [18], > 100 µM (inactive); in assay [9], > 100 µM (inactive); in [19] it was 49.1 µM (inactive); in assay [10] it was > 100 µM (inactive); in assay [11], 53.2 µM (inactive). Besides, the GI50 was > 100 µM (inactive) in [12]; > 100 µM (inactive) in assay [13]; 40.6 µM (inactive) in [14]; > 100 µM (inactive) in assay [15]; > 100 µM (inactive) in assay [16].

Take `O=C1N[C@@H]2O[C@H](CNC(=O)c3cc(Br)c[nH]3)C[C@]2(O)N1.O=C1N[C@H]2O[C@H](CNC(=O)c3cc(Br)c[nH]3)C[C@@]2(O)N1`: the GI50 in assay [1] was > 100 µM (inactive); in [2], > 100 µM (inactive); in assay [3], above 100 µM; in assay [4] it was > 100 µM (inactive); in assay [5], > 100 µM (inactive); in assay [6] it was > 100 µM (inactive). Besides, the GI50 in assay [7], in assay [8], in assay [18], in assay [9], in [19] and in [10] was > 100 µM (inactive) in each case. For the same molecule, the GI50 in [11], in [12], in assay [13], in [14], in [15] and in assay [16] was > 100 µM (inactive) each time.

For the molecule `CC(C)(C)OC(=O)N/N=C(/N)c1ccccc1`, the GI50 was > 100 µM (inactive) in assay [1]; > 100 µM (inactive) in [2]; above 100 µM in [3]; > 100 µM (inactive) in assay [17]; > 100 µM (inactive) in assay [5]; > 100 µM (inactive) in [6]. Besides, the GI50 in [7], in assay [8], in assay [18], in assay [9], in assay [19] and in [10] was > 100 µM (inactive) throughout. Moreover, the GI50 in [11], in assay [13], in assay [14], in assay [15] and in [16] was > 100 µM (inactive) in each case.

On to `COc1ccc(C2=NN(C(C)=O)c3nc4ccccc4nc3O2)cc1`, for which the GI50 in assay [1] is 40.6 µM (inactive); in assay [2], 45.6 µM (inactive); in [3], 46.6 µM; in assay [5], 70.6 µM (inactive); in assay [6], 55.2 µM (inactive); in assay [7], 20.8 µM (inactive). For the same molecule, the GI50 in assay [8] was > 100 µM (inactive); in assay [18] it was 11 µM (inactive); in assay [19], 26.1 µM (inactive); in assay [10], > 100 µM (inactive); in assay [11], 27 µM (inactive); in assay [12], > 100 µM (inactive). Further, the GI50 in assay [13] is 21.3 µM (inactive); in assay [14], 18.9 µM (inactive); in assay [15], 50.8 µM (inactive); in [16], 61.4 µM (inactive).

On to `O=c1[nH]c2ccccc2c(=O)n1/N=C/c1ccc(O)cc1`, for which the GI50 was > 100 µM (inactive) in assay [1]; > 100 µM (inactive) in [2]; above 100 µM in assay [3]; 31.7 µM (inactive) in assay [4]; > 100 µM (inactive) in assay [6]; > 100 µM (inactive) in assay [8]. The GI50 in [9] is 73.5 µM (inactive); in assay [19] it was 50.7 µM (inactive); in assay [10], 55.2 µM (inactive); in assay [11], 36 µM (inactive); in assay [12] it was > 100 µM (inactive); in assay [13], > 100 µM (inactive). The GI50 is 79.4 µM (inactive) in assay [14], > 100 µM (inactive) in assay [15] and 42.4 µM (inactive) in assay [16].

Turning to `COc1cc2cc(C(=O)N3CC(CCl)c4ccc([N+](=O)[O-])cc43)[nH]c2c(OC)c1OC` (stereo unspecified), the GI50 in assay [1] is > 100 µM (inactive); in assay [2], 30.8 µM (inactive); in assay [3], above 100 µM; in assay [4], 74.5 µM (inactive); in assay [5], > 100 µM (inactive); in assay [6] it was > 100 µM (inactive). Further, the GI50 is > 100 µM (inactive) in [7]; > 100 µM (inactive) in assay [8]; 29.2 µM (inactive) in assay [18]; > 100 µM (inactive) in [9]; > 100 µM (inactive) in [19]; > 100 µM (inactive) in [10]. For the same molecule, the GI50 in assay [11], in assay [12], in assay [13], in [14], in [15] and in assay [16] was > 100 µM (inactive) in each case.

For `COc1ccc(O[C@H](COCc2ccccc2)C[C@@H]2COC(C)(C)O2)cc1`, the GI50 in assay [1] was > 100 µM (inactive); in assay [2] it was > 100 µM (inactive); in assay [3] it was above 100 µM; in assay [17], > 100 µM (inactive); in assay [5] it was > 100 µM (inactive); in [6] it was > 100 µM (inactive). The GI50 in [7], in assay [8], in assay [18], in assay [9], in assay [19] and in assay [10] was > 100 µM (inactive) in each case. The GI50 in assay [11], in [12], in assay [13], in assay [14], in assay [15] and in assay [16] was > 100 µM (inactive) in each case.

`O=C(/N=N/c1cccc(Cl)c1)NNc1cccc(Cl)c1`: the GI50 in assay [1] is 24.5 µM (inactive); in assay [3], 17.6 µM; in assay [17], 13.1 µM (inactive); in [5] it was 16.7 µM (inactive); in assay [6] it was 26.2 µM (inactive); in assay [7] it was 21.9 µM (inactive). The GI50 is 15 µM (inactive) in [8]; 10.3 µM (inactive) in assay [18]; 8.97 µM (inactive) in assay [9]; 11.7 µM (inactive) in assay [10]; 20.8 µM (inactive) in [11]; 16.2 µM (inactive) in assay [12]. In addition, the GI50 in assay [13] is 25.1 µM (inactive); in assay [14] it was 18.7 µM (inactive); in assay [15], 19.1 µM (inactive); in assay [16], 9.25 µM (inactive).

Regarding `CCOC(=O)CCCc1cc(O)c2c(C)c3[nH]c4ccc(Cl)cc4c3c(C)c2n1`, the GI50 in assay [1] was 19.6 µM (inactive); in assay [2] it was 79.1 µM (inactive); in [3] it was 31.5 µM; in [17], 34.9 µM (inactive); in [5], 24 µM (inactive); in [6], 50.2 µM (inactive). The GI50 is 17.7 µM (inactive) in assay [8]; 23.7 µM (inactive) in assay [18]; 28.8 µM (inactive) in [9]; 28.8 µM (inactive) in [19]; 27.3 µM (inactive) in assay [10]; 23.7 µM (inactive) in [11]. The GI50 was 32.2 µM (inactive) in [12], 21.1 µM (inactive) in assay [13], 22.9 µM (inactive) in assay [14] and 43.2 µM (inactive) in assay [15].

As to `Cc1ccc(N(C)S(=O)(=O)c2ccccc2[N+](=O)[O-])cc1`, the GI50 is 39.6 µM (inactive) in assay [1]; 55.1 µM (inactive) in assay [2]; 46.7 µM in assay [3]; 34.5 µM (inactive) in [17]; 33.2 µM (inactive) in assay [5]; 40.4 µM (inactive) in assay [6]. Further, the GI50 is 24.6 µM (inactive) in assay [7]; 44 µM (inactive) in assay [8]; 41.7 µM (inactive) in assay [18]; 19 µM (inactive) in assay [9]; 52.1 µM (inactive) in assay [19]; 83 µM (inactive) in assay [10]. The GI50 is 64.9 µM (inactive) in [11]; 58.3 µM (inactive) in assay [12]; > 100 µM (inactive) in assay [13]; 49.2 µM (inactive) in assay [14]; 41.7 µM (inactive) in [15].

As to `NCC(=O)NC1(c2cc3ccccc3s2)CCCCC1`, the GI50 in assay [1] was 74.1 µM (inactive); in assay [2], 19.9 µM (inactive); in assay [3], 61.1 µM; in assay [4] it was 27.7 µM (inactive); in assay [17], 38.8 µM (inactive); in assay [5], 17.6 µM (inactive). In addition, the GI50 in [6] was 71.4 µM (inactive); in assay [7] it was 41.4 µM (inactive); in assay [8], > 100 µM (inactive); in assay [18], 50.8 µM (inactive); in assay [19] it was 59.7 µM (inactive); in [10] it was 79.1 µM (inactive). Further, the GI50 in assay [11] is > 100 µM (inactive); in [12] it was 91 µM (inactive); in assay [13], 36 µM (inactive); in assay [15], 17.4 µM (inactive); in assay [16], 19.7 µM (inactive).
